Values joined by “and” are separate entries in the source; they are usually repeats but may differ in a detail not shown here. Identical values can stand only once. Counter-ions that a name gives are not always drawn. Like-named read-outs stand apart in the source and are kept apart here. Square brackets hold non-standard residues; d marks the D form. Peptide text beside a SMILES is read from it. * marks the point of attachment. dNMePhg = CN[C@@H](C(=O)O)c1ccccc1; dHpg = N[C@@H](C(=O)O)c1ccc(O)cc1; dChg = N[C@@H](C(=O)O)C1CCCCC1; dPhg = N[C@@H](C(=O)O)c1ccccc1; Boc = CC(C)(C)OC(=O)*
Assays:
thrombin = biological target: T1, thrombin (Bos taurus, UniProt P00735); assay: Inhibition of thrombin amidase activity (chromogenic substrate N-benzoyl-D-phenylalanyl-L-valyl-L-arginyl-p-nitroanilide); type: biochemical
T1 construct: purchased
Description: The data in the table were obtained in an assay in which thrombin hydrolyzes the chromogenic substrate, N-benzoyl-D-phenylalanyl-L-valyl-L-arginyl-p-nitroanilide.
The assay was carried out in 50 µl buffer (0.03M Tris, 0.15M NaCl, pH 7.4) with 25 µl of thrombin solution (0.21 mg/ml of thrombostat powder in 0.06 M Tris, 0.3M NaCl, pH 7.4) and 150 µl of an aqueous solution of the chromogenic substrate at a concentration of 0.25 mg/ml. Solutions of test compound (25 µl) at various concentrations were added. […] Standard curves were constructed by plotting free thrombin concentration against hydrolysis rate. […] The amount of free inhibitor in each assay was calculated by subtracting the number of moles of bound thrombin from the number of moles of added inhibitor (test compound).
The Kass value is the hypothetical equilibrium constant for the reaction between thrombin and the test compouhnd (I). Thrombin + I ⇄ Thrombin - I [formula] Kass =([Thrombin I])/([ (Thrombin) x (I) ]) [formula]
Kass was calculated for a range of concentrations of test compounds and the mean value is reported in units of liter per mole.

plasma [1] = assay: Plasma coagulation assay: activated partial thromboplastin time (APTT); type: biochemical; settings: Actin (Dade), CaCl2
Description: (§1) The numerical values in the table are the concentrations of the test compounds (ng/ml) required to prolong coagulation by 2-fold in the three tests. The thrombin time evaluation was carried out in plasma and separately determined in a buffer system at […].
(§2) The data presented in Table 2 were obtained using a CoaScreener instrument from Tecan, Inc. in the assay protocols listed below. Prothrombin Time: 50 µl plasma 50 µl saline 7 µl test solution 50 µl thromboplastin (Dade) Thrombin Time: 50 µl plasma 50 µl saline 7 µl test compound 50 µl bovine thrombin (2 NIH unit/ml) In the Thrombin Time determined in pH 7.4 buffer fibrinogen was used instead of plasma. APTT: 50 µl plasma 50 µl Actin (Dade) 7 µl test solution 50 µl CaCl2 (0.01M).

bovine thrombin [2] = biological target: T2, bovine thrombin (Bos taurus, UniProt P00735); assay: Plasma coagulation assay: thrombin time; type: biochemical; settings: for EC (2-fold clotting time): read-out: Thrombin Time: concentration of test compounds required to prolong coagulation by 2-fold
T2 construct: 50 µl bovine thrombin (2 NIH unit/ml)
Description: as §1, §2

plasma [3] = assay: Plasma coagulation assay: prothrombin time; type: biochemical; settings: thromboplastin (Dade)
Description: as §1, §2

bovine thrombin [4] = biological target: T2, bovine thrombin; assay: Thrombin time in buffer (fibrinogen instead of plasma); type: biochemical
Description: as §1, §2

[5] = tested on: Arterial Thrombosis in the Rat; assay: FeCl3-induced arterial thrombosis in the carotid artery of the rat; type: in vivo; settings: infusion from 15 min before to 60 min after FeCl3 application, NA = Not active at 4 mg/kg/h or at 7 mg/kg/h, the highest doses tested
Description: The antithrombotic activity of representative compounds of the invention was determined in in vivo tests carried out in the rat. The test employed induced arterial thrombosis in the carotid artery of the rat and measured the infusion dose of test compound required to maintain blood flow for fifty minutes past the time of occlusion. The test was performed as follows.
Arterial thrombosis was induced in the rat by injury of the carotid artery. Topical application of a ferric chloride solution was used to injure the vessel. […] Animals were laid on a water blanket in which the circulated water was maintained at 37° C. The carotid artery was approached through a midline cervical incision. Careful blunt dissection was used to expose and isolate the vessel from the carotid sheath. A silk suture was pulled underneath the artery to lift the vessel to provide clearance to insert a thermocouple underneath it. […] The discs were cut to equal size using sharpened stainless steel tubing (3 mm i.d.) chucked in a drill press. A saturated disc was placed on each carotid artery above the thermocouple. The time between FeCl3 application and the time at which temperature decreased abruptly was recorded as time to occlusion (TTO) of the vessel. The average time required for both vessels to occlude was used to represent TTO for each animal.
Test compounds were dissolved in isotonic saline. A syringe pump was used to infuse drug solutions starting 15 min before FeCl3 application and continuing for 60 min after FeCl3 application. Dose-response curves were plotted to determine the relationship between the log10 of the infused doses and the TTO of the injured arteries.
The association between vessel occlusion and the abrupt temperature decrease was established by simultaneously recording the temperature and blood flow on the same recorder. A pulsed Doppler flow probe was placed around the carotid artery proximal to the thermocouple. […] Results were reported as percent change from initial baseline values (6 min before occlusion). The time at which vessel temperature decreased rapidly was arbitrarily established as zero and pre- and post-occlusion temperature and flow values were referenced from that point.

[6] = apparent equilibrium (association) constant, mean over a range of concentrations, pH 7.4, acetate salts unless indicated otherwise, read-out: Thrombin Amidase Kass (converted)
[7] = Thrombin Amidase Kass, apparent equilibrium (association) constant, mean over a range of concentrations, pH 7.4, acetate salts unless indicated otherwise
[8] = plasma, bovine thrombin (2 NIH unit/ml)
[9] = buffer pH 7.5, fibrinogen instead of plasma, read-out: Buffer (pH 7.5) Thrombin Time: concentration of test compounds required to prolong coagulation by 2-fold

C[C@H](C(=O)N1CCC[C@H]1C(=O)N[C@H](C=O)CCCNC(=N)N)c1ccccc1 [(S)-α-Methylphenylacetyl]
Kd (thrombin; [6]): 5000 nM

CC(C)(C)OC(=O)N1CCc2ccccc2C1C(=O)N1CCC[C@H]1C(=O)N[C@H](C=O)CCCNC(=N)N (mixture of isomers) [Boc-1,2,3,4-tetrahydroisoquinolin-1-ylcarbonyl-Pro-Arg-H]
Kd (thrombin; [7]): 263 nM

C[C@@H](C(=O)N1CCC[C@H]1C(=O)N[C@H](C=O)CCCNC(=N)N)c1ccccc1 [(R)-α-Methylphenylacetyl]
Kd (thrombin; [6]): 90.9 nM

COc1ccc([C@@H](NC(=O)OC(C)(C)C)C(=O)N2CCC[C@H]2C(=O)N[C@H](C=O)CCCNC(=N)N)cc1 [N-Boc-D-(4-methoxy)phenylglycyl]
Kd (thrombin; [7]): 13.3 nM
APTT: concentration of test compounds required to prolong coagulation by 2-fold (plasma [1]): 640 ng/mL
EC (2-fold clotting time) (bovine thrombin [2]; [8]): 0.08 µg/mL

CN(C(=O)OC(C)(C)C)[C@@H](C(=O)N1CCC[C@H]1C(=O)N[C@H](C=O)CCCNC(=N)N)c1ccccc1 [N-Boc-N-methyl-D-phenylglcyl] (Boc-[dNMePhg]-Pro-Arg-aldehyde)
Kd (thrombin; [7]): 192 nM
Prothrombin Time: concentration of test compounds required to prolong coagulation by 2-fold (plasma [3]): 300 ng/mL
APTT: concentration of test compounds required to prolong coagulation by 2-fold (plasma [1]): 4545 ng/mL
EC (2-fold clotting time) (bovine thrombin [2]; [8]): 0.3 µg/mL

COc1ccc2cc([C@@H](NC(=O)OC(C)(C)C)C(=O)N3CCC[C@H]3C(=O)N[C@H](C=O)CCCNC(=N)N)ccc2c1 [N-Boc-D-(6-methoxy)-2-naphthylglycyl]
Kd (thrombin; [7]): 164 nM
Prothrombin Time: concentration of test compounds required to prolong coagulation by 2-fold (plasma [3]): 35489 ng/mL
APTT: concentration of test compounds required to prolong coagulation by 2-fold (plasma [1]): 2239 ng/mL
EC (2-fold clotting time) (bovine thrombin [2]; [8]): 0.46 µg/mL
EC (2-fold clotting time) (bovine thrombin [4]; [9]): 0.466 µg/mL

CC(C)(C)OC(=O)N[C@@H](C(=O)N1CCC[C@H]1C(=O)N[C@H](C=O)CCCN=C(N)N)c1ccccc1 [N-Boc-D-phenylglycyl, N-(t-Butyloxycarbonyl)-D-phenylglycyl-L-Prolyl-L-Arginine aldehyde (Boc-D-Phg-Pro-Arg-H) diacetate salt] (Boc-[dPhg]-Pro-Arg-aldehyde)
Kd (thrombin; [7]): 11.4 nM and 13.7 nM

CC(C)(C)OC(=O)N[C@@H](C(=O)N1CCC[C@H]1C(=O)N[C@H](C=O)CCCN=C(N)N)c1ccc(O)cc1 [N-Boc-D-(4-hydroxy)phenylglycyl, N-Boc-D-(4-hydroxyphenylglycyl)-Pro-Arg-H diacetate] (Boc-[dHpg]-Pro-Arg-aldehyde)
Kd (thrombin; [7]): 8.7 nM

CO[C@@H](C(=O)N1CCC[C@H]1C(=O)N[C@H](C=O)CCCNC(=N)N)c1ccccc1 [(R)-α-Methoxyphenylacetyl]
Kd (thrombin; [6]): 238 nM
Prothrombin Time: concentration of test compounds required to prolong coagulation by 2-fold (plasma [3]): >909 ng/mL
APTT: concentration of test compounds required to prolong coagulation by 2-fold (plasma [1]): >909 ng/mL

CC(C)(C)OC(=O)N[C@@H](C(=O)N1CCC[C@H]1C(=O)N[C@H](C=O)CCCNC(=N)N)c1cccs1 [N-Boc-D-2-thienyiglycyl]
Kd (thrombin; [7]): 71.4 nM

NC(N)=NCCC[C@@H](C=O)NC(=O)[C@@H]1CCCN1C(=O)[C@H](N)c1ccccc1 [D-Phenylglycyl, D-Phg-L-Pro-L-Arg-H] (H-[dPhg]-Pro-Arg-aldehyde)
Kd (thrombin; [7]): 13.3 nM

N=C(N)NCCC[C@@H](C=O)NC(=O)[C@@H]1CCCN1C(=O)[C@H](N)c1ccccc1 [D-Phenylglycyl, D-Phg-L-Pro-L-Arg-H] (H-[dPhg]-Pro-Arg-aldehyde)
Prothrombin Time: concentration of test compounds required to prolong coagulation by 2-fold (plasma [3]): 91 ng/mL
APTT: concentration of test compounds required to prolong coagulation by 2-fold (plasma [1]): 1139 ng/mL
EC (2-fold clotting time) (bovine thrombin [2]; [8]): 0.091 µg/mL

CC(C)(C)OC(=O)NC(C(=O)N1CCC[C@H]1C(=O)N[C@H](C=O)CCCNC(=N)N)c1ccc(Cl)c(Cl)c1 (mixture of isomers) [N-Boc-DL-(3,4-dichloro)phenylglycyl]
Kd (thrombin; [7]): 25 nM

CC(C)(C)OC(=O)N[C@@H](C(=O)N1CCC[C@H]1C(=O)N[C@H](C=O)CCCNC(=N)N)C1CCCCC1 [N-Boc-D-cyclohexylglycyl] (Boc-[dChg]-Pro-Arg-aldehyde)
Prothrombin Time: concentration of test compounds required to prolong coagulation by 2-fold (plasma [3]): 522 ng/mL
APTT: concentration of test compounds required to prolong coagulation by 2-fold (plasma [1]): 748 ng/mL
EC (2-fold clotting time) (bovine thrombin [2]; [8]): 0.079 µg/mL
EC (2-fold clotting time) (bovine thrombin [4]; [9]): 0.06 µg/mL
ED50 (infusion dose required to maintain blood flow for 50 min) [5]: 11.3 mg/kg/h

CC(C)(C)OC(=O)N[C@@H](C(=O)N1CCC[C@H]1C(=O)N[C@H](C=O)CCCNC(=N)N)c1ccccc1 [N-Boc-D-phenylglycyl, N-(t-Butyloxycarbonyl)-D-phenylglycyl-L-Prolyl-L-Arginine aldehyde (Boc-D-Phg-Pro-Arg-H) diacetate salt] (Boc-[dPhg]-Pro-Arg-aldehyde)
Prothrombin Time: concentration of test compounds required to prolong coagulation by 2-fold (plasma [3]): 667 ng/mL
APTT: concentration of test compounds required to prolong coagulation by 2-fold (plasma [1]): 1169 ng/mL
EC (2-fold clotting time) (bovine thrombin [2]): 0.11 µg/mL
EC (2-fold clotting time) (bovine thrombin [4]; pH 7.5, read-out: Buffer (pH 7.5) Thrombin Time: concentration of test compounds required to prolong coagulation by 2-fold): 0.118 µg/mL
ED50 (infusion dose required to maintain blood flow for 50 min) [5]: 2.9 mg/kg/h

CC(C)(C)OC(=O)N[C@@H](C(=O)N1CCC[C@H]1C(=O)N[C@H](C=O)CCCN=C(N)N)c1ccccc1 [N-Boc-D-phenylglycyl (sulfate salt), N-Boc-D-Phenylglycyl-L-Prolyl-L-Arginine aldehyde (Boc-D-Phg-Pro-Arg-H) hemisulfate] (Boc-[dPhg]-Pro-Arg-aldehyde)
Kd (thrombin; [7]): 9.35 nM

CN[C@@H](C(=O)N1CCC[C@H]1C(=O)N[C@H](C=O)CCCNC(=N)N)c1ccccc1 [N-Methyl-D-phenylglycyl, N-methyl-D-phenylglycyl-L-prolyl-L-arginine aldehyde] (H-[dNMePhg]-Pro-Arg-aldehyde)
Kd (thrombin; [7]): 10.9 nM
Prothrombin Time: concentration of test compounds required to prolong coagulation by 2-fold (plasma [3]): 899 ng/mL
APTT: concentration of test compounds required to prolong coagulation by 2-fold (plasma [1]): >909 ng/mL
EC (2-fold clotting time) (bovine thrombin [2]; [8]): 0.092 µg/mL
EC (2-fold clotting time) (bovine thrombin [4]; [9]): 0.067 µg/mL

CC(C)(C)OC(=O)N[C@@H](C(=O)N1CCC[C@H]1C(=O)N[C@H](C=O)CCCN=C(N)N)C1CCCCC1 [N-Boc-D-cyclohexylglycyl] (Boc-[dChg]-Pro-Arg-aldehyde)
Kd (thrombin; [7]): 8.33 nM

CC[C@@H](C(=O)N1CCC[C@H]1C(=O)N[C@H](C=O)CCCNC(=N)N)c1ccccc1 [(R)-α-Ethylphenylacetyl]
Kd (thrombin; [6]): 133 nM
Prothrombin Time: concentration of test compounds required to prolong coagulation by 2-fold (plasma [3]): 700 ng/mL
APTT: concentration of test compounds required to prolong coagulation by 2-fold (plasma [1]): 2275 ng/mL

COc1ccc([C@@H](NC(C)=O)C(=O)N2CCC[C@H]2C(=O)N[C@H](C=O)CCCNC(=N)N)cc1 [N-Acetyl-D-(4-methoxy)phenylglycyl]
Kd (thrombin; [7]): 64.5 nM
Prothrombin Time: concentration of test compounds required to prolong coagulation by 2-fold (plasma [3]): 900 ng/mL
APTT: concentration of test compounds required to prolong coagulation by 2-fold (plasma [1]): 2600 ng/mL
EC (2-fold clotting time) (bovine thrombin [2]; [8]): 0.16 µg/mL

CC(C)(C)OC(=O)N[C@@H](C(=O)N1CCC[C@H]1C(=O)N[C@H](C=O)CCCNC(=N)N)c1ccc2ccccc2c1 [N-Boc-D-2-naphthylglycyl, N-Boc-D-2-naphthylglycyl-Pro-Arg-H diacetate]
Kd (thrombin): 45 nM
Prothrombin Time: concentration of test compounds required to prolong coagulation by 2-fold (plasma [3]): 1200 ng/mL
APTT: concentration of test compounds required to prolong coagulation by 2-fold (plasma [1]): 1200 ng/mL
Thrombin Time: concentration of test compounds required to prolong coagulation by 2-fold (bovine thrombin [2]; [8]): 230 ng/mL
Buffer (pH 7.5) Thrombin Time: concentration of test compounds required to prolong coagulation by 2-fold (bovine thrombin [4]; buffer pH 7.5, fibrinogen instead of plasma): 142 ng/ml

N=C(N)NCCC[C@@H](C=O)NC(=O)[C@@H]1CCCN1C(=O)C1NCCc2ccccc21 (mixture of isomers)
Kd (thrombin; [7]): 11.4 nM

CC(C)(C)OC(=O)N[C@@H](C(=O)N1CCC[C@H]1C(=O)N[C@H](C=O)CCCNC(=N)N)c1ccc(O)cc1 [N-Boc-D-(4-hydroxy)phenylglycyl, N-Boc-D-(4-hydroxyphenylglycyl)-Pro-Arg-H diacetate] (Boc-[dHpg]-Pro-Arg-aldehyde)
Prothrombin Time: concentration of test compounds required to prolong coagulation by 2-fold (plasma [3]): 1636 ng/mL
APTT: concentration of test compounds required to prolong coagulation by 2-fold (plasma [1]): 1091 ng/mL
EC (2-fold clotting time) (bovine thrombin [2]; [8]): 0.182 µg/mL

From patent EP0837071A1, “Tripeptide antithrombotic agents” (ELI LILLY AND COMPANY, priority 1990, dated 1992)
